Assays:
[1] = system: Elektroschock-induzierte Konvulsionen; assay: Protection against electroshock-induced convulsions (mouse); assay type: in vivo; settings: po, Maus, read-out: ED₅₀
Text: (§1) Die neuen Verbindungen besitzen wertvolle pharmakologische Eigenschaften, insbesondere eine ausgeprägte antikonvulsive Wirksamkeit mit neuartigem Wirkungsspektrum. Die ausgezeichnete antikonvulsive Wirksamkeit der erfindungsgemäss bereitgestellten Verbindungen zeigt sich insbesondere an Primaten. […] Das neuartige Wirkungsspektrum der erfindungsgemässen Verbindungen kann beispielsweise durch ihr Verhalten in den nachstehenden pharmakologischen und biochemischen Epilepsiemodellen charakterisiert werden: • 1) Schutzwirkung gegen Elektroschock-induzierte Konvulsionen (Maus, Ratte): deutliche Aktivität in Dosen ab etwa 30 mg/kg p.o., für z.B. 5-Amino-1-(4-hexyl)-1M-1,2,3-triazol-4-carboxamid ED₅₀ = 100 mg/kg p.o. (Maus) bzw. […] Wirkung auf die GABA-Neuro-transmission und kein nachweisbarer Einfluss auf den GABA-Kata-bolismus; • 6) Kindling-Epilepsiemodell (Ratte): die Entwicklung sowohl der Nachentladung als auch der Symptomatologie wird stark verlangsamt.

[2] = system: experimentellen Strychninkrampf; assay: Protection against experimental strychnine convulsions; assay type: in vivo, Maus; settings: Mus musculus, po, read-out: ED₅₀
Text: as §1

[3] = system: Elektroschock-induzierte Konvulsionen; assay: Protection against electroshock-induced convulsions (rat); assay type: in vivo; settings: po, Ratte, read-out: ED₅₀
Text: as §1

Metrazol-Antagonismus = assay: Metrazol antagonism in the mouse; assay type: in vivo; settings: po, Maus, read-out: ED₅₀
Text: as §1

[4] = system: Picrotoxin-induzierte Konvulsionen; assay: Protection against picrotoxin-induced convulsions; assay type: in vivo; settings: Maus, doses up to and including 300 mg/kg p.o.
Text: as §1

[5] = system: durch Aluminiumoxidimplantation erzeugten fokalen Konvulsionen; assay: Focal convulsions produced by aluminium oxide implantation in the rhesus monkey; assay type: in vivo, Rhesusaffen; settings: daily doses of 50 mg/kg p.o., over the whole 15-day treatment
Text: as §1

SMILES	ED50 [1] [mg/kg]	ED50 [2] [mg/kg]	ED50 [3] [mg/kg]	ED50 (Metrazol-Antagonismus) [mg/kg]	Schutzwirkung gegen Picrotoxin-induzierte Konvulsionen [4]	Anzahl der fokalen Konvulsionen [5]	Intensität der fokalen Konvulsionen [5]
CCCC(CC)n1nnc(C(N)=O)c1N (stereo not shown) [5-Amino-1-(4-hexyl)-1H-1,2,3-triazol-4-carboxamid]	100	300	50	210	keine Wirkung feststellbar	–	–
CCCC(CCC)n1nnc(C(N)=O)c1N [Beispiel 1, 5-Amino-1-(4-heptyl)-1H-1,2,3-triazol-4-carboxamid]	–	–	–	–	–	starke Abnahme	starke Abnahme
